Results reported in ChEMBL document CHEMBL1140633, “The application of 3D-QSAR studies for novel cannabinoid ligands substituted at the C1' position of the alkyl side chain on the structural requirements for binding to cannabinoid receptors CB1 and CB2” (J Med Chem, 2007).

Tests used:
Cannabinoid receptor 1 = Cannabinoid receptor 1 (Homo sapiens, UniProt P21554); assay: Binding affinity to CB1 receptor
Cannabinoid receptor 2 = Cannabinoid receptor 2 (Homo sapiens, UniProt P34972); assay: Binding affinity to CB2 receptor
Cannabinoid receptor 2, sequence (P34972 whole entry): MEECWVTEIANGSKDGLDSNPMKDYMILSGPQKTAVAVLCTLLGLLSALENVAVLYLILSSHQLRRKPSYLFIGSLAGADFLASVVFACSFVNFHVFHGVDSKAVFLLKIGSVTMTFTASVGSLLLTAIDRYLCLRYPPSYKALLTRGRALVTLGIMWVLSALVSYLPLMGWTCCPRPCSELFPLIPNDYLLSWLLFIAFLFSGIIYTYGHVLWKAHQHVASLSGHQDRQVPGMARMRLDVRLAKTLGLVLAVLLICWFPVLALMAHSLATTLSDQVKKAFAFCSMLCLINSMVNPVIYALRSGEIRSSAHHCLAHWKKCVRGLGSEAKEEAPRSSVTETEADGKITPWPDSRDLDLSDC

Cannabinoid receptor 1, sequence (P21554 whole entry): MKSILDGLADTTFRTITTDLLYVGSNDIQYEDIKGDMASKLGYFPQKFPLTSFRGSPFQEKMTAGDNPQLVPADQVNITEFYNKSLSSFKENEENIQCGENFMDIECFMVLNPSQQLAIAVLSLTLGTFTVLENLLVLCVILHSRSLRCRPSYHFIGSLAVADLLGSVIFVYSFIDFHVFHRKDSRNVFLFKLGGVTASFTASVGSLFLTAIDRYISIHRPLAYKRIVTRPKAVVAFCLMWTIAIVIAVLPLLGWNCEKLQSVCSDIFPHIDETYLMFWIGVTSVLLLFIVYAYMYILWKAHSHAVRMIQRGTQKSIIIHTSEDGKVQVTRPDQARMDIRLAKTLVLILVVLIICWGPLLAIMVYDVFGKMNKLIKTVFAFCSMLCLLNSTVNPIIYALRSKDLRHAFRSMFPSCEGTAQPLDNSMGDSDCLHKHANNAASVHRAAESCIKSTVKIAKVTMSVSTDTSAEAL

With `CC1=CC[C@@H]2[C@@H](C1)c1c(O)cc(CCCCCN=[N+]=[N-])cc1OC2(C)C` the Ki (Cannabinoid receptor 1) was 19 nM.
Compound `CCCCCCC1(c2cc(O)c3c(c2)OC(C)(C)[C@@H]2CC=C(C)C[C@@H]32)OCCO1` has a Ki (Cannabinoid receptor 1) of 0.52 nM and a Ki (Cannabinoid receptor 2) of 0.22 nM.
In the case of `CCCCCCC1(c2cc(O)c3c(c2)OC(C)(C)[C@@H]2CC=C(C)C[C@@H]32)SCCCS1`, the Ki (Cannabinoid receptor 1) is reported as 1.8 nM and the Ki (Cannabinoid receptor 2) is reported as 3.6 nM.
Work on `CCCCCCC1(c2cc(O)c3c(c2)OC(C)(C)[C@@H]2CC=C(C)C[C@@H]32)CCCC1` yielded a Ki (Cannabinoid receptor 1) of 0.45 nM and a Ki (Cannabinoid receptor 2) of 1.92 nM.
In the case of `CC1=CC[C@@H]2[C@@H](C1)c1c(O)cc(C3SCCS3)cc1OC2(C)C`, the Ki (Cannabinoid receptor 1) is reported as 168 nM and the Ki (Cannabinoid receptor 2) is reported as 103 nM.
Work on `CCCCCCC1(c2cc(O)c3c(c2)OC(C)(C)[C@@H]2CC=C(C)C[C@@H]32)CC1(Br)Br` (stereo partly specified) yielded a Ki (Cannabinoid receptor 1) of 0.71 nM and a Ki (Cannabinoid receptor 2) of 1.03 nM.
Compound `CCCCCCC1(c2cc(O)c3c(c2)OC(C)(C)[C@@H]2CC=C(C)C[C@@H]32)CC1(Cl)Cl` (stereo partly specified) has a Ki (Cannabinoid receptor 1) of 1.27 nM and a Ki (Cannabinoid receptor 2) of 0.29 nM.
`CC1=CC[C@@H]2[C@@H](C1)c1c(O)cc(C(C)(C)CCCCOc3ccc(C#N)cc3)cc1OC2(C)C` was tested, and the Ki (Cannabinoid receptor 1) was 1.5 nM and the Ki (Cannabinoid receptor 2) was 1.1 nM.
For `CC1=CC[C@@H]2[C@@H](C1)c1c(O)cc(C(C)(C)CCCCC(=O)NN3CCCCC3)cc1OC2(C)C`, the Ki (Cannabinoid receptor 1) was 4.5 nM and the Ki (Cannabinoid receptor 2) was 3.2 nM.
In the case of `CC1=CC[C@@H]2[C@@H](C1)c1c(O)cc(C(C)(C)CCCCCC#N)cc1OC2(C)C`, the Ki (Cannabinoid receptor 1) is reported as 0.2 nM and the Ki (Cannabinoid receptor 2) is reported as 2.9 nM.
Work on `CCCCCCC1(c2cc(O)c3c(c2)OC(C)(C)[C@@H]2CC=C(C)C[C@@H]32)CC1` yielded a Ki (Cannabinoid receptor 1) of 0.44 nM and a Ki (Cannabinoid receptor 2) of 0.86 nM.
Work on `CC1=CC[C@@H]2[C@@H](C1)c1c(O)cc(C(C)(C)CCCCBr)cc1OC2(C)C` yielded a Ki (Cannabinoid receptor 1) of 0.43 nM.
Work on `CCc1ccc(-c2cc(O)c3c(c2)OC(C)(C)[C@@H]2CC=C(C)C[C@@H]32)cc1` yielded a Ki (Cannabinoid receptor 1) of 119 nM and a Ki (Cannabinoid receptor 2) of 51.7 nM.
`CC1=CC[C@@H]2[C@@H](C1)c1c(O)cc(C3(C#N)CCCCC3)cc1OC2(C)C` gave a Ki (Cannabinoid receptor 1) of 8.26 nM and a Ki (Cannabinoid receptor 2) of 3.86 nM.
`CCCc1ccc(-c2cc(O)c3c(c2)OC(C)(C)[C@@H]2CC=C(C)C[C@@H]32)cc1` showed a Ki (Cannabinoid receptor 1) of 57.8 nM and a Ki (Cannabinoid receptor 2) of 108 nM.
With `CC1=CC[C@@H]2[C@@H](C1)c1c(O)cc(C3(C#N)CCCC3)cc1OC2(C)C` the Ki (Cannabinoid receptor 1) was 27.9 nM and the Ki (Cannabinoid receptor 2) was 25.2 nM.
`C=C(C)C1CCC(C)=C[C@H]1c1c(O)cc(-c2cccc3ccccc23)cc1O` (stereo partly specified) was tested, and the Ki (Cannabinoid receptor 1) was 754 nM and the Ki (Cannabinoid receptor 2) was 222 nM.
Work on `C=C(C)C1CCC(C)=C[C@H]1c1c(O)cc(C2(C#N)CCCC2)cc1O` (stereo partly specified) yielded a Ki (Cannabinoid receptor 1) of 255 nM and a Ki (Cannabinoid receptor 2) of 105 nM.
With `C=C(C)C1CCC(C)=C[C@H]1c1c(O)cc(C2(CCCCCC)CC2(Cl)Cl)cc1O` (stereo partly specified) the Ki (Cannabinoid receptor 1) was 666 nM and the Ki (Cannabinoid receptor 2) was 32.9 nM.
For `C=C(C)C1CCC(C)=C[C@H]1c1c(O)cc(C2(CCCCCC)SCCS2)cc1O` (stereo partly specified), the Ki (Cannabinoid receptor 1) was 136 nM and the Ki (Cannabinoid receptor 2) was 50.4 nM.
`C=C(CCCCCC)c1cc(O)c2c(c1)OC(C)(C)[C@@H]1CC=C(C)C[C@@H]21` gave a Ki (Cannabinoid receptor 1) of 2.17 nM and a Ki (Cannabinoid receptor 2) of 3.3 nM.
Compound `C=C(C)C1CCC(C)=C[C@H]1c1c(O)cc(-c2ccc(C)cc2)cc1O` (stereo partly specified) has a Ki (Cannabinoid receptor 1) of 638 nM and a Ki (Cannabinoid receptor 2) of 374 nM.
Work on `CCCC(C)(C)c1cc(O)c2c(c1)OC(C)(C)[C@@H]1CC=C(C)C[C@@H]21` yielded a Ki (Cannabinoid receptor 1) of 10.9 nM.
Compound `CCCCCC(C)(C)c1cc(O)c2c(c1)OC(C)(C)[C@@H]1CC=C(C)C[C@@H]21` has a Ki (Cannabinoid receptor 1) of 2.7 nM.
`CC1=CC[C@@H]2[C@@H](C1)c1c(O)cc(CCCC(C)C)cc1OC2(C)C` showed a Ki (Cannabinoid receptor 1) of 141 nM.
`CC1=CC[C@@H]2[C@@H](C1)c1c(O)cc(C(C)(C)C3CCCC3)cc1OC2(C)C` was tested, and the Ki (Cannabinoid receptor 1) was 0.34 nM and the Ki (Cannabinoid receptor 2) was 0.39 nM.
`CC1=CC[C@@H]2[C@@H](C1)c1c(O)cc(C(C)(C)C3CCCCCC3)cc1OC2(C)C` showed a Ki (Cannabinoid receptor 1) of 0.94 nM and a Ki (Cannabinoid receptor 2) of 0.22 nM.
Compound `CC1=CC[C@@H]2[C@@H](C1)c1c(O)cc(C(C)(C)C)cc1OC2(C)C` has a Ki (Cannabinoid receptor 1) of 14 nM.
In the case of `CCCCCCC1(c2cc(O)c3c(c2)OC(C)(C)[C@@H]2CC=C(C)C[C@@H]32)Sc2ccccc2S1`, the Ki (Cannabinoid receptor 1) is reported as 56.9 nM and the Ki (Cannabinoid receptor 2) is reported as 257 nM.
`CCCCCCC1(c2cc(O)c3c(c2)OC(C)(C)[C@@H]2CC=C(C)C[C@@H]32)SC(C)C(C)S1` (stereo partly specified) was tested, and the Ki (Cannabinoid receptor 1) was 32.3 nM and the Ki (Cannabinoid receptor 2) was 19.7 nM.
Work on `CC1=CC[C@@H]2[C@@H](C1)c1c(O)cc(C(C)(C)CCCCC#N)cc1OC2(C)C` yielded a Ki (Cannabinoid receptor 1) of 1.75 nM and a Ki (Cannabinoid receptor 2) of 1.1 nM.
Work on `CC1=CC[C@@H]2[C@@H](C1)c1c(O)cc(-c3cccc4ccccc34)cc1OC2(C)C` yielded a Ki (Cannabinoid receptor 1) of 11.7 nM and a Ki (Cannabinoid receptor 2) of 9.39 nM.
Work on `CC1=CC[C@@H]2[C@@H](C1)c1c(O)cc(-c3ccc(C)cc3)cc1OC2(C)C` yielded a Ki (Cannabinoid receptor 1) of 95.5 nM and a Ki (Cannabinoid receptor 2) of 71.8 nM.
In the case of `C=C(C)C1CCC(C)=C[C@H]1c1c(O)cc(C2(CCCCCC)CC2(Br)Br)cc1O` (stereo partly specified), the Ki (Cannabinoid receptor 1) is reported as 189 nM and the Ki (Cannabinoid receptor 2) is reported as 63.3 nM.
With `C=C(C)C1CCC(C)=C[C@H]1c1c(O)cc(C2(CCCCCC)CC2)cc1O` (stereo partly specified) the Ki (Cannabinoid receptor 1) was 58.7 nM and the Ki (Cannabinoid receptor 2) was 99.2 nM.
For `CCCCC(C)(C)c1cc(O)c2c(c1)OC(C)(C)[C@@H]1CC=C(C)C[C@@H]21`, the Ki (Cannabinoid receptor 1) was 3.9 nM.
Compound `CC1=CC[C@@H]2[C@@H](C1)c1c(O)cc(Oc3ccccc3)cc1OC2(C)C` has a Ki (Cannabinoid receptor 1) of 297 nM and a Ki (Cannabinoid receptor 2) of 23.6 nM.
`C=C(C)C1CCC(C)=C[C@H]1c1c(O)cc(C2(C#N)CCCCC2)cc1O` (stereo partly specified) was tested, and the Ki (Cannabinoid receptor 1) was 319 nM and the Ki (Cannabinoid receptor 2) was 111 nM.
Compound `CCCCCCC(=O)c1cc(O)c2c(c1)OC(C)(C)[C@@H]1CC=C(C)C[C@@H]21` has a Ki (Cannabinoid receptor 1) of 21.7 nM and a Ki (Cannabinoid receptor 2) of 83.7 nM.
In the case of `CC1=CC[C@@H]2[C@@H](C1)c1c(O)cc(C34CC5CC(CC(C5)C3)C4)cc1OC2(C)C`, the Ki (Cannabinoid receptor 1) is reported as 6.8 nM and the Ki (Cannabinoid receptor 2) is reported as 52 nM.
`CCCCCCC1(c2cc(O)c3c(c2)OC(C)(C)[C@@H]2CC=C(C)C[C@@H]32)SCCS1` showed a Ki (Cannabinoid receptor 1) of 0.32 nM and a Ki (Cannabinoid receptor 2) of 0.52 nM.
For `CCCCCCCc1cc(O)c2c(c1)OC(C)(C)[C@@H]1CC=C(C)C[C@@H]21`, the Ki (Cannabinoid receptor 1) was 22 nM.
